Source: PubChem BioAssay (NCI)
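Following 48 hours of exposure in 96-well plates, responses at five concentrations were used to interpolate endpoints linearly. TGI is the concentration that stops growth completely.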

What was measured:
Experiment in all cases: growth of human tumour cells (NCI), 48 h
CAKI-1 renal = system: CAKI-1 renal
SF-268 CNS = system: SF-268 CNS
LOX IMVI melanoma = system: LOX IMVI melanoma
HOP-92 NSCLC = system: HOP-92 NSCLC
TK-10 renal = system: TK-10 renal
A549 NSCLC = system: A549 NSCLC
SN12C renal = system: SN12C renal
SK-MEL-5 melanoma = system: SK-MEL-5 melanoma
SK-OV-3 ovarian = system: SK-OV-3 ovarian
HOP-62 NSCLC = system: HOP-62 NSCLC
MDA-MB-435 = system: MDA-MB-435
HS 578T breast = system: HS 578T breast
U251 CNS = system: U251 CNS
EKVX NSCLC = system: EKVX NSCLC
MDA-MB-231 breast = system: MDA-MB-231 breast
HCT-116 colon = system: HCT-116 colon
MDA-N = system: MDA-N
OVCAR-5 ovarian = system: OVCAR-5 ovarian
UACC-62 melanoma = system: UACC-62 melanoma
RXF 393 renal = system: RXF 393 renal
SNB-19 CNS = system: SNB-19 CNS
KM12 colon = system: KM12 colon
ACHN renal = system: ACHN renal
HCC-2998 colon = system: HCC-2998 colon
NCI-H226 lung = system: NCI-H226 lung
SF-539 CNS = system: SF-539 CNS
SW-620 colon = system: SW-620 colon
HT29 colon = system: HT29 colon
NCI-H522 lung = system: NCI-H522 lung
SK-MEL-2 melanoma = system: SK-MEL-2 melanoma
OVCAR-4 ovarian = system: OVCAR-4 ovarian
T-47D breast = system: T-47D breast
IGROV1 ovarian = system: IGROV1 ovarian
HL-60(TB) leukemia = system: HL-60(TB) leukemia
NCI-H23 lung = system: NCI-H23 lung
A498 renal = system: A498 renal
M14 melanoma = system: M14 melanoma
MALME-3M melanoma = system: MALME-3M melanoma
PC-3 prostate = system: PC-3 prostate
786-0 renal = system: 786-0 renal
NCI-H460 lung = system: NCI-H460 lung
K-562 leukemia = system: K-562 leukemia
OVCAR-3 ovarian = system: OVCAR-3 ovarian
NCI/ADR-RES ovarian = system: NCI/ADR-RES ovarian
DU-145 prostate = system: DU-145 prostate
UACC-257 melanoma = system: UACC-257 melanoma
SK-MEL-28 melanoma = system: SK-MEL-28 melanoma
HCT-15 colon = system: HCT-15 colon
COLO 205 colon = system: COLO 205 colon
MCF7 breast = system: MCF7 breast
SF-295 CNS = system: SF-295 CNS
CCRF-CEM leukemia = system: CCRF-CEM leukemia
SNB-75 CNS = system: SNB-75 CNS
SR leukemia = system: SR leukemia
OVCAR-8 ovarian = system: OVCAR-8 ovarian
MOLT-4 leukemia = system: MOLT-4 leukemia
UO-31 renal = system: UO-31 renal
BT-549 breast = system: BT-549 breast

For `N=C1C=C(N)C(=O)c2[nH]c(=O)ccc21`, the TGI (CAKI-1 renal) was 13 µM, the TGI (SF-268 CNS) was 3.59 µM and the TGI (LOX IMVI melanoma) was 3.69 µM. The TGI (HOP-92 NSCLC) was 3.58 µM, the TGI (TK-10 renal) was 24.9 µM and the TGI (A549 NSCLC) was 4.99 µM. For the same molecule, the TGI (SN12C renal) was 3.16 µM, the TGI (SK-MEL-5 melanoma) was 3.22 µM and the TGI (SK-OV-3 ovarian) was 26.7 µM. For the same molecule, the TGI (HOP-62 NSCLC) was 3.59 µM, the TGI (MDA-MB-435) was 2.3 µM and the TGI (HS 578T breast) was over 100 µM. For the same molecule, the TGI (U251 CNS) was 3.6 µM, the TGI (EKVX NSCLC) was 3.55 µM and the TGI (MDA-MB-231 breast) was 3.46 µM. It also gave a TGI (HCT-116 colon) of 2.48 µM, a TGI (MDA-N) of 2.28 µM and a TGI (OVCAR-5 ovarian) of 4.78 µM. For the same molecule, the TGI (UACC-62 melanoma) was 4.61 µM, the TGI (RXF 393 renal) was 3.29 µM and the TGI (SNB-19 CNS) was 3.86 µM. The TGI (KM12 colon) was 3.21 µM, the TGI (ACHN renal) was 3.1 µM and the TGI (HCC-2998 colon) was 35.8 µM. It also gave a TGI (NCI-H226 lung) of 6.04 µM, a TGI (SF-539 CNS) of 3.73 µM and a TGI (SW-620 colon) of 6.7 µM. For the same molecule, the TGI (HT29 colon) was 4.5 µM, the TGI (NCI-H522 lung) was 3.54 µM and the TGI (SK-MEL-2 melanoma) was 4.48 µM. The TGI (OVCAR-4 ovarian) was 2.74 µM, the TGI (T-47D breast) was 4.88 µM and the TGI (IGROV1 ovarian) was 3.39 µM. The TGI (HL-60(TB) leukemia) was 4.87 µM, the TGI (NCI-H23 lung) was 4.09 µM and the TGI (A498 renal) was 6.52 µM. It also gave a TGI (M14 melanoma) of 28.7 µM, a TGI (MALME-3M melanoma) of 6.19 µM and a TGI (PC-3 prostate) of 2.8 µM. It also gave a TGI (786-0 renal) of 3.48 µM, a TGI (NCI-H460 lung) of 6.95 µM and a TGI (K-562 leukemia) of 4.4 µM. The TGI (OVCAR-3 ovarian) was 2.96 µM, the TGI (NCI/ADR-RES ovarian) was 4.86 µM and the TGI (DU-145 prostate) was 21.4 µM. It also gave a TGI (UACC-257 melanoma) of 16.6 µM, a TGI (SK-MEL-28 melanoma) of 36.8 µM and a TGI (HCT-15 colon) of 4.06 µM. The TGI (COLO 205 colon) was 3.14 µM, the TGI (MCF7 breast) was 1.78 µM and the TGI (SF-295 CNS) was 31.2 µM. It also gave a TGI (CCRF-CEM leukemia) of 5.81 µM.
`CC(=O)Oc1ccc2c(c1)CC[C@@H]1C2CC[C@]2(C)C(=O)NC(=O)CC12` (stereo partly specified) showed a TGI (CAKI-1 renal) of over 100 µM, a TGI (SF-268 CNS) of over 100 µM and a TGI (HOP-92 NSCLC) of over 100 µM. The TGI (TK-10 renal) was over 100 µM, the TGI (A549 NSCLC) was over 100 µM and the TGI (SN12C renal) was over 100 µM. It also gave a TGI (SK-MEL-5 melanoma) of over 100 µM, a TGI (SK-OV-3 ovarian) of over 100 µM and a TGI (SNB-75 CNS) of over 100 µM. The TGI (HOP-62 NSCLC) was over 100 µM, the TGI (MDA-MB-435) was over 100 µM and the TGI (HS 578T breast) was over 100 µM. It also gave a TGI (SR leukemia) of over 100 µM, a TGI (U251 CNS) of over 100 µM and a TGI (OVCAR-8 ovarian) of over 100 µM. For the same molecule, the TGI (EKVX NSCLC) was over 100 µM, the TGI (MDA-MB-231 breast) was over 100 µM and the TGI (HCT-116 colon) was over 100 µM. The TGI (MDA-N) was over 100 µM, the TGI (OVCAR-5 ovarian) was over 100 µM and the TGI (UACC-62 melanoma) was over 100 µM. It also gave a TGI (RXF 393 renal) of over 100 µM, a TGI (SNB-19 CNS) of over 100 µM and a TGI (MOLT-4 leukemia) of over 100 µM. It also gave a TGI (KM12 colon) of over 100 µM, a TGI (ACHN renal) of over 100 µM and a TGI (HCC-2998 colon) of over 100 µM. The TGI (NCI-H226 lung) was over 100 µM, the TGI (SF-539 CNS) was over 100 µM and the TGI (SW-620 colon) was over 100 µM. It also gave a TGI (HT29 colon) of over 100 µM, a TGI (NCI-H522 lung) of over 100 µM and a TGI (OVCAR-4 ovarian) of over 100 µM. It also gave a TGI (T-47D breast) of over 100 µM, a TGI (IGROV1 ovarian) of over 100 µM and a TGI (UO-31 renal) of over 100 µM. For the same molecule, the TGI (HL-60(TB) leukemia) was over 100 µM, the TGI (NCI-H23 lung) was over 100 µM and the TGI (A498 renal) was over 100 µM. The TGI (M14 melanoma) was over 100 µM, the TGI (MALME-3M melanoma) was over 100 µM and the TGI (PC-3 prostate) was over 100 µM. For the same molecule, the TGI (786-0 renal) was over 100 µM, the TGI (NCI-H460 lung) was over 100 µM and the TGI (BT-549 breast) was over 100 µM. For the same molecule, the TGI (K-562 leukemia) was over 100 µM, the TGI (OVCAR-3 ovarian) was over 100 µM and the TGI (DU-145 prostate) was over 100 µM. It also gave a TGI (UACC-257 melanoma) of over 100 µM, a TGI (SK-MEL-28 melanoma) of over 100 µM and a TGI (COLO 205 colon) of over 100 µM. The TGI (MCF7 breast) was over 100 µM, the TGI (SF-295 CNS) was over 100 µM and the TGI (CCRF-CEM leukemia) was over 100 µM.
